Measurements published in US11730937B2, “Separable microneedle arrays for sustained release of drug” (Georgia Tech Research Corporation, priority 2017, dated 2023).

Experiment: in vivo
Conditions: female, Sprague Dawley, rat, iv, 0.006 mg
Method: Specifically, LNG pharmacokinetics were evaluated in adult female Sprague Dawley rats (200±12 g) by applying a LNG-loaded microneedle patch to each rat while under isoflurane anesthesia. The rats' dorsal skin was shaved before application of microneedle patches, taking care not to damage skin during shaving.
Plasma was then separated by centrifuging blood samples at 2000 g for 15 minutes at 4° C., and underwent subsequent analysis by enzyme-linked immunosorbent assay (ELISA, Thermo Fisher Scientific) following the manufacturer's instruction to determine LNG concentration.
Pharmacokinetic parameters were calculated using non-compartmental pharmacokinetic analysis. […] Bioavailability of LNG delivered from microneedles was calculated from the ratio of dose-normalized AUC values after microneedle patch administration and intravenous LNG injection.

AUC(0-inf): 17.2 ± 0.3 ng·h/mL
AUC(0-t): 17.2 ± 0.3 ng·h/mL
half-life: 20.7 ± 0.6 h
SMILES: C#C[C@]1(O)CC[C@H]2[C@@H]3CCC4=CC(=O)CC[C@@H]4[C@H]3CC[C@@]21CC [LNG, levonorgestrel]
